These results are taken from ChEMBL document CHEMBL5608252, “New Potent Sulfonamide-Based Inhibitors of S. aureus Biotin Protein Ligase” (ACS Med Chem Lett, 2024).

Assay [1] can be described thus: Inhibition of Staphylococcus aureus BPL assessed as inhibition constant by biotinylation assay.
Assay [2] has as its system Staphylococcus aureus. Description: Antibacterial activity against methicillin-susceptible Staphylococcus aureus ATCC 49775 incubated for 16 to 20 hrs by CLSI based broth microdilution method. The assay is classed as functional. The conditions noted are these: time 16-20 hrs. Background: Dilution methods test growth across graded concentrations, often in twofold steps.

Assay [3] has as its system Staphylococcus aureus. Description: Antibacterial activity against methicillin-resistant Staphylococcus aureus […] incubated for 16 to 20 hrs by CLSI based broth microdilution method. The assay is classed as functional. The conditions noted are these: time 16-20 hrs.
The test system of assay [4] is Staphylococcus aureus. As to the kind of experiment: Antibacterial activity against methicillin-resistant Staphylococcus aureus USA300 incubated for 16 to 20 hrs by CLSI based broth microdilution method. The class given is functional. Particulars: time 16-20 hrs.
Assay [5] relates to Staphylococcus aureus. As to the kind of experiment: Antibacterial activity against methicillin-susceptible Staphylococcus aureus ATCC 29213 incubated for 16 to 20 hrs by CLSI based broth microdilution method. The class given is functional. The conditions noted are these: time 16-20 hrs.

pKi: −log10 of the molar value. ≈ marks a conversion by molar mass, not a printed value. Where only a bound is given, the exact number is not on record here.

With `Nc1ncnc2c1ncn2CCCCNS(=O)(=O)NC(=O)NCCCC[C@@H]1SC[C@@H]2NC(=O)N[C@@H]21`, the pKi in assay [1] was 7.19.

Consider `Nc1ncnc2c1ncn2CCCCS(=O)(=O)NC(=O)OCCCCC[C@@H]1SC[C@@H]2NC(=O)N[C@@H]21`, for which the minimal inhibitory concentration (MIC) in the assay with Staphylococcus aureus [2], against Staphylococcus aureus [3], with Staphylococcus aureus [4] and against Staphylococcus aureus [5] was greater than 256 µg/mL in each case. Also, in assay [1], the pKi is 7.99.

Turning to `Nc1ncnc2c1ncn2CCCNS(=O)(=O)NC(=O)OCCCCC[C@@H]1SC[C@@H]2NC(=O)N[C@@H]21`, the MIC was 32 µg/mL (≈ 60.6 µM) against Staphylococcus aureus [2], 16 µg/mL (≈ 30.3 µM) in the assay on Staphylococcus aureus [3], 32 µg/mL (≈ 60.6 µM) against Staphylococcus aureus [4] and 32 µg/mL (≈ 60.6 µM) against Staphylococcus aureus [5]. Further, the pKi in assay [1] is 7.70.

Turning to `Nc1ncnc2c1ncn2CCCCNS(=O)(=O)NC(=O)CCCC[C@@H]1SC[C@@H]2NC(=O)N[C@@H]21`, in assay [1], the pKi was 8.15.

Consider `Nc1ncnc2c1ncn2CCCCCS(=O)(=O)NC(=O)NCCCC[C@@H]1SC[C@@H]2NC(=O)N[C@@H]21`, for which the minimum inhibitory concentration (MIC) with Staphylococcus aureus [2], in the assay on Staphylococcus aureus [3], in the assay with Staphylococcus aureus [4] and with Staphylococcus aureus [5] was 16 µg/mL (≈ 30.4 µM) in each case. In assay [1], the pKi was 7.24.

On to `Nc1ncnc2c1ncn2CCCCOS(=O)(=O)NC(=O)NCCCC[C@@H]1SC[C@@H]2NC(=O)N[C@@H]21`, for which the MIC in the assay on Staphylococcus aureus [2] is 32 µg/mL (≈ 60.6 µM); in the assay on Staphylococcus aureus [3], 16 µg/mL (≈ 30.3 µM); in the assay on Staphylococcus aureus [4] it was 32 µg/mL (≈ 60.6 µM); against Staphylococcus aureus [5], 32 µg/mL (≈ 60.6 µM). Moreover, in assay [1], the pKi is 7.45.

Usually pKi stands for −log10 of the Ki, conventionally taken in molar units. As usually defined, the MIC is the least concentration at which growth counts as inhibited.
